Earlier results in US20050163873A1, “Methods and formulations for treating glaucoma” (priority 2004, published 2005).

Key:
hippocampal CA1 neurons = settings: central infusion after forebrain ischemia, gerbil
[1] = system: cultured neuronal cells and astrocytes; settings: pretreatment of cultured neuronal cells and astrocytes
[2] = system: primary cultures of cerebellar neurons
retina = settings: guinea pig, in vivo
[3] = system: inducible nitric oxide synthase (iNOS)
diabetic rats [4] = system: diabetic rats
[5] = system: cultured retinal ganglion cells
[6] = system: goldfish retinal explants; settings: post-crush goldfish retinal explants, in the presence of fetal calf serum
diabetic rats [7] = system: diabetic rats; remark: listed apart in the source
[8] = folic acid 400 μg associated with vitamin B6 and B12
[9] = system: tumor necrosis factor-alpha (TNF-α) and nitric oxide (NO)
HIV-1 enzyme integrase = HIV-1 enzyme integrase (Human immunodeficiency virus type 1 group M subtype B, UniProt P04585)
rabbits [10] = system: rabbits
[11] = system: human Tenon's capsule fibroblast; settings: human Tenon's capsule fibroblasts
[12] = system: cultured neurons from embryonic mouse cortex and striatum
[13] = system: nitric oxide and tumor necrosis factor alpha
heme oxygenase 1 = settings: neuronal cell cultures
rabbits [14] = system: rabbits; remark: listed apart in the source

In the case of CC(C)=CCC[C@](C)(O[C@@H]1O[C@H](CO[C@@H]2O[C@H](CO)[C@@H](O)[C@H](O)[C@H]2O)[C@@H](O)[C@H](O)[C@H]1O)[C@H]1CC[C@]2(C)[C@@H]1[C@H](O)C[C@@H]1[C@@]3(C)CC[C@H](O[C@@H]4O[C@H](CO)[C@@H](O)[C@H](O)[C@H]4O[C@@H]4O[C@H](CO)[C@@H](O)[C@H](O)[C@H]4O)C(C)(C)[C@@H]3CC[C@]12C [Ginsenoside Rb1, ginsenoside Rb1], the “neuroprotective effects on cultured cortical cells” value (cultured cortical cells) is given as “significant neuroprotective effects” and the “protection of hippocampal CA1 neurons against lethal ischemic damage” value (hippocampal CA1 neurons) is given as “protects”.
In the case of COC1=C(OC)C(=O)C(C/C=C(\C)CC/C=C(\C)CC/C=C(\C)CC/C=C(\C)CC/C=C(\C)CC/C=C(\C)CC/C=C(\C)CC/C=C(\C)CC/C=C(\C)CCC=C(C)C)=C(C)C1=O [coenzyme Q10], the “cell death due to glutamate neurotoxicity” value [1] is given as “inhibited cell death”.
In the case of C[N+](C)(C)CC(O)CC(=O)[O-] (stereo not shown) [Carnitine], the glutamate neurotoxicity [2] is listed as “prevents” and the “retinal injury following ischemia-reperfusion injury” value (retina) is listed as “prevent”.
For N[C@H]1C(O)O[C@H](CO)[C@@H](O)[C@@H]1O (stereo partly shown) [glucosamine], the “inducible nitric oxide synthase (iNOS) inhibition” value [3] is given as “inhibits”.
For O=C(O)CCCCC1CCSS1 (stereo not drawn) [alpha-lipoic acid, Alpha-lipoic acid], the amount of leukostasis (diabetic rats [4]) is given as “normalized”.
For C/C1=C2/[N-][C@H]([C@H](CC(N)=O)[C@@]2(C)CCC(=O)NC[C@@H](C)OP(=O)([O-])O[C@H]2[C@@H](O)[C@@H](n3cnc4cc(C)c(C)cc43)O[C@@H]2CO)[C@]2(C)N=C(/C(C)=C3N=C(/C=C4N=C1[C@@H](CCC(N)=O)C\4(C)C)[C@@H](CCC(N)=O)[C@]\3(C)CC(N)=O)[C@@H](CCC(N)=O)[C@]2(C)CC(N)=O.[CH3-].[Co+3] [Methylcobalamin], the glutamate-induced neurotoxicity [5] is given as “protects”.
For NCCS(=O)(=O)O [Taurine], the neuritic outgrowth [6] is listed as “increased length and density of neurites”, the ATPase activity (diabetic rats [7]) is listed as “preserves” and the lipid peroxidation (diabetic rats [7]) is listed as “significantly decreases”.
In the case of CC(C)=CCC[C@](C)(O)[C@H]1CC[C@]2(C)[C@@H]1[C@H](O)C[C@@H]1[C@@]3(C)CC[C@H](O[C@@H]4O[C@H](CO)[C@@H](O)[C@H](O)[C@H]4O[C@@H]4O[C@H](CO)[C@@H](O)[C@H](O)[C@H]4O)C(C)(C)[C@@H]3CC[C@]12C [Ginsenoside Rg3], the “neuroprotective effects on cultured cortical cells” value (cultured cortical cells) is given as “significant neuroprotective effects”.
For Nc1nc2ncc(CNc3ccc(C(=O)N[C@@H](CCC(=O)O)C(=O)O)cc3)nc2c(=O)[nH]1 [folic acid], the “reduction of homocysteine levels” value [8] is given as 30%.
For COc1cc(C[C@H]2C(=O)OC[C@@H]2Cc2ccc(OC)c(OC)c2)ccc1O [Arctigenin], the “tumor necrosis factor-alpha (TNF-α) and nitric oxide (NO) production” value [9] is listed as “inhibit”, the “HIV-1 enzyme integrase inhibition” value (HIV-1 enzyme integrase) is listed as “inhibit” and the “DNA topoisomerase II inhibition” value (DNA topoisomerase II) is listed as “inhibitor”. The glutamate toxicity (cultured neurons) was “protect”.
For Cc1c(C)c2c(c(C)c1O)CC[C@@](C)(CCC[C@H](C)CCC[C@H](C)CCCC(C)C)O2 [D-alpha-tocopherol], the “results of filtering surgery” value (rabbits [10]) is listed as “improve the results”, the fibroblast proliferation [11] is listed as “inhibit” and the amount of leukostasis (diabetic rats [4]) is listed as “prevented the increases in leukostasis”. The retinal blood flow (diabetic rats [4]) was “prevented”.
For C[N+](C)(C)CCOP(=O)(O)OP(=O)([O-])OC[C@H]1O[C@@H](n2ccc(N)nc2=O)[C@H](O)[C@@H]1O [citicoline, Citicoline], the “visual evoked potential and pattern electroretinography (ERG) parameters” value (patients with glaucoma) is given as “significant (P<0.01) improvement”.
For CC(=O)N[C@@H](CS)C(=O)O [N-acetyl-L-cysteine], the “neuronal cell survival rate” value [12] is given as “increased”.
In the case of O=c1c(O)c(-c2ccc(O)c(O)c2)oc2cc(O)cc(O)c12 [Quercetin], the “release of nitric oxide and tumor necrosis factor alpha” value [13] is given as “inhibits”, the “progression of selenite-induced cataract” value (rats) is given as “slow the progression” and the oxidative injury (cortical cell cultures) is given as “neuroprotective”.
For Oc1ccc(C=Cc2cc(O)cc(O)c2)cc1 [resveratrol, Resveratrol], the “heme oxygenase 1” value (heme oxygenase 1) is given as “induces”.
For C=CCSSC[C@H](N)C(=O)O [S-Allylmercaptocysteine], the IOP (rabbits [14]) is listed as “lower IOP”.
